In patent US20100137313A1 (ASTRAZENECA AB, priority 2008, published 2010):

Molecular target: S. pneumoniae Topoisomerase IV ATPase (ParE) (Streptococcus pneumoniae serotype 4, UniProt Q59961)
Experiment: S. pneumoniae Topoisomerase IV ATPase inhibition
Format: biochemical
Details: values marked * are an average of two or more data points, read-out: % Inh (13 μM) of S. pneumoniae Topoisomerase IV ATPase
Procedure, shortened: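 Malachite green/ammonium molybdate phosphate detection, A650. 1.25 nM ParE, 160 μM ATP, sheared salmon sperm DNA 5 μg/ml, 20 mM Tris pH 8.0, 8.0 mM MgCl2. Controls: 2% DMSO = 0%, 20 μM EDTA = 100% inhibition; IC50 over 10 concentrations.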

Sequence of S. pneumoniae Topoisomerase IV ATPase (ParE) (Q59961 whole entry): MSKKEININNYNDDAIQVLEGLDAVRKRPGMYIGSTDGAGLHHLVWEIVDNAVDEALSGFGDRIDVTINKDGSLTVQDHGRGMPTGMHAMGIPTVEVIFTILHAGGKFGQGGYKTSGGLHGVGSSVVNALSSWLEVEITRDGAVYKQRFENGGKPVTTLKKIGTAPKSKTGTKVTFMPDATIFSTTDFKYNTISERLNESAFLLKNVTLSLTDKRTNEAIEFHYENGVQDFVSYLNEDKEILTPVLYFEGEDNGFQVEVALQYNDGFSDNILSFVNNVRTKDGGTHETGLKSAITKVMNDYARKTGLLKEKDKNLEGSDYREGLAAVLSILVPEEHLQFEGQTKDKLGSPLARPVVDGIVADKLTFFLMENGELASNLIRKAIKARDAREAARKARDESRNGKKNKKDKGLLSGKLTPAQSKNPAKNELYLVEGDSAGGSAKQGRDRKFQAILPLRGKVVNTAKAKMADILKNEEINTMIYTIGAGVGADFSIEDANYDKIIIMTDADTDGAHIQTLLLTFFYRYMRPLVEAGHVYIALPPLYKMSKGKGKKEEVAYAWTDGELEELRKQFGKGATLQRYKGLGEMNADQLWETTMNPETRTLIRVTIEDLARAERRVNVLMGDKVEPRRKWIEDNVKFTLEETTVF

Compared with CONC(=O)c1cncc(-c2cnc(Nc3ccc(F)c(Cl)c3)nc2-n2nc(-c3nccs3)cc2C)c1 [Example 545, 5-{2-[(3-chloro-4-fluorophenyl)amino]-4-[5-methyl-3-(1,3-thiazol-2-yl)-1H-pyrazol-1-yl]pyrimidin-5-yl}-N-methoxypyridine-3-carboxamide], CONC(=O)c1cc(-c2cnc(Nc3ccc(F)c(Cl)c3)nc2-n2nc(C(F)(F)F)cc2C)cnc1OC [Example 1102, 5-(2-(3-chloro-4-fluorophenylamino)-4-(5-methyl-3-(trifluoromethyl)-1H-pyrazol-1-yl)pyrimidin-5-yl)-N,2-dimethoxynicotinamide] is lower in inhibition at 13 µM: 100% for the first, 96% for the second.

Compared with CCS(=O)(=O)NC(=O)c1cc(-c2cnc(Nc3cc(C)cc(C)c3)nc2-n2nc(C(F)(F)F)cc2C)cnc1OC [Example 823], COc1cc(Nc2ncc(-c3cnc(OC)c(C(=O)NS(=O)(=O)CC(F)(F)F)c3)c(-n3nc(C(F)(F)F)cc3C)n2)cc(OC)c1 [Example 835, 5-{2-[(3,5-dimethoxyphenyl)amino]-4-[5-methyl-3-(trifluoromethyl)-1H-pyrazol-1-yl]pyrimidin-5-yl}-2-methoxy-N-[(2,2,2-trifluoroethyl)sulfonyl]pyridine-3-carboxamide] is lower in inhibition at 13 µM: 100% for the first, 95% for the second.

COc1cc(Nc2ncc(-c3cnc(OC)c(C(=O)O)c3)c(-n3nc(C(F)(F)F)nc3C)n2)cc(OC)c1 [Example 1144, 5-(2-(3,5-dimethoxyphenylamino)-4-(5-methyl-3-(trifluoromethyl)-1H-1,2,4-triazol-1-yl)pyrimidin-5-yl)-2-methoxynicotinic acid] and COc1cc(Nc2ncc(-c3cncc(C(=O)O)c3)c(-n3nc(C(F)(F)F)cc3C)n2)cc(OC)c1 [Example 636, 5-{2-[(3,5-dimethoxyphenyl)amino]-4-[5-methyl-3-(trifluoromethyl)-1H-pyrazol-1-yl]pyrimidin-5-yl}pyridin-3-carboxylic acid] are the same in inhibition at 13 µM: 100% for the first, 100% for the second.

Compared with Cc1cccc(Nc2ncc(-c3cccc(/C=C/C(=O)O)c3)c(-n3ccc(C(F)(F)F)n3)n2)c1 [Example 694, (2E)-3-(3-{2-[(3-methylphenyl)amino]-4-[3-(trifluoromethyl)-1H-pyrazol-1-yl]pyrimidin-5-yl}phenyl)prop-2-enoic acid], Cc1cc(C(F)(F)F)nn1-c1nc(Nc2cccc(F)c2)ncc1-c1cccc(/C=C/C(=O)O)c1 [Example 622, (2E)-3-(3-{2-[(3-fluorophenyl)amino]-4-[5-methyl-3-(trifluoromethyl)-1H-pyrazol-1-yl]pyrimidin-5-yl}phenyl)prop-2-enoic acid] is lower in inhibition at 13 µM: 100% for the first, 98% for the second.

Going from CS(=O)(=O)c1cncc(-c2cnc(Nc3ccc(F)c(Cl)c3)nc2N2CCOCC2)c1 [Example 988, N-(3-chloro-4-fluorophenyl)-5-(5-(methylsulfonyl)pyridin-3-yl)-4-morpholinopyrimidin-22-amine] to COCCCNc1nc(Nc2ccc(F)c(Cl)c2)ncc1-c1cncc(S(C)(=O)=O)c1 [Example 987, N2-(3-chloro-4-fluorophenyl)-N4-(3-methoxypropyl)-5-(5-(methylsulfonyl)pyridin-3-yl)pyrimidine-2,4-diamine], the inhibition at 13 µM falls from 69% to 30%.

Going from CC(C)OCCNc1nc(Nc2ccc(F)c(Cl)c2)ncc1-c1cncc(C(=O)O)c1 [Example 236, 5-[2-[(3-chloro-4-fluorophenyl)amino]-4-(2-propan-2-yloxyethyolamino)pyrimidin-5-yl]pyridine-3-carboxylic acid] to COc1ncc(-c2cnc(Nc3ccc(F)c(Cl)c3)nc2NCCc2c[nH]cn2)cn1 [Example 462, N^2-(3-chloro-4-fluorophenyl)-N^4-[2-(1H-imidazol-4-yl)ethyl]-2′-methoxy-5,5′-bipyrimidine-2,4-diamine], the inhibition at 13 µM rises from 73.6% to 85%.

Compared with COc1cc(Nc2ncc(-c3ccc4c(c3)C(=O)NS4(=O)=O)c(-n3ccc(C(F)(F)F)n3)n2)cc(OC)c1 [Example 831, 5-{2-[(3,5-dimethoxyphenyl)amino]-4-[3-(trifluoromethyl)-1H-pyrazol-1-yl]pyrimidin-5-yl}-1,2-benzothiazol-3(2H)-one 1,1-dioxide], CNC(=O)c1cncc(-c2cnc(Nc3cc(OC)cc(OC)c3)nc2-n2ccc(C(F)(F)F)n2)c1 [Example 678, 5-{2-[(3,5-dimethoxyphenyl)amino]-4-[3-(trifluoromethyl)-1H-pyrazol-1-yl]pyrimidin-5-yl}-N-methylpyridine-3-carboxamide] is higher in inhibition at 13 µM: 89% for the first, 100% for the second.

Going from COc1cc(F)cc(Nc2ncc(-c3cc(C(=O)O)c(=O)n(C)c3)c(-n3nc(C(F)(F)F)cc3C)n2)c1 [Example 921, 5-(2-(3-fluoro-5-methoxyphenylamino)-4-(5-methyl-3-(trifluoromethyl)-1H-pyrazol-1-yl)pyrimidin-5-yl)-1-methyl-2-oxo-1,2-dihydropyridine-3-carboxylic acid] to Cc1cc(C)cc(Nc2ncc(-c3cc(C(=O)O)c(=O)n(C)c3)c(-n3ccc(C(F)(F)F)n3)n2)c1 [Example 922, 5-(2-(3,5-dimethylphenylamino)-4-(3-(trifluoromethyl)-1H-pyrazol-1-yl)pyrimidin-5-yl)-1-methyl-2-oxo-1,2-dihydropyridine-3-carboxylic acid], the inhibition at 13 µM rises from 99% to 100%.

Compared with NC(=O)c1cccc(-c2cnc(Nc3ccc(F)c(Cl)c3)nc2-n2ccc(C(F)(F)F)n2)c1 [Example 1147, 3-(2-(3-chloro-4-fluorophenylamino)-4-(3-(trifluoromethyl)-1H-pyrazol-1-yl)pyrimidin-5-yl)benzamide], COc1c(C(=O)O)cccc1-c1cnc(Nc2ccc(F)c(Cl)c2)nc1-n1ccc(C(F)(F)F)n1 [Example 1139, 3-(2-(3-chloro-4-fluorophenylamino)-4-(3-(trifluoromethyl)-1H-pyrazol-1-yl)pyrimidin-5-yl)-2-methoxybenzoic acid] is lower in inhibition at 13 µM: 100% for the first, 96% for the second.

Compared with O=C(O)/C=C/c1cccc(-c2cnc(Nc3ccc(F)c(Cl)c3)nc2NCCCc2nc3ccccc3[nH]2)c1 [Example 289, (E)-3-(3-(4-(3-(1H-benzo[d]imidazol-2-yl)propylamino)-2-(3-chloro-4-fluorophenylamino)-pyrimidin-5-yl)phenyl)acrylic acid], Cn1cc(CNc2nc(Nc3ccc(F)c(Cl)c3)ncc2-c2cccc(/C=C/C(=O)O)c2)cn1 [Example 298, (E)-3-(3-(2-(3-chloro-4-fluorophenylamino)-4-((1-methyl-1H-pyrazol-4-yl)methylamino)pyrimidin-5-yl)phenyl)acrylic acid] is lower in inhibition at 13 µM: 88.2% for the first, 80.7% for the second.

First: COc1cc(F)cc(Nc2ncc(-c3ccc(C(=O)O)o3)c(-n3ccc(C(F)(F)F)n3)n2)c1 [Example 892, 5-(2-(3-fluoro-5-methoxyphenylamino)-4-(3-(trifluoromethyl)-1H-pyrazol-1-yl)pyrimidin-5-yl)furan-2-carboxylic acid]
Second: O=C(O)c1cncc(-c2cnc(Nc3ccc4c(c3)CCC4)nc2-n2ccc(C(F)(F)F)n2)c1 [Example 668, 5-{2-(2,3-dihydro-1H-inden-5-ylamino)-4-[3-(trifluoromethyl)-1H-pyrazol-1-yl]pyrimidin-5-yl}pyridine-3-carboxylic acid]
The inhibition at 13 µM of the first is higher: 100% for the first, 85% for the second.

First: CC(=O)c1ccc(-c2cnc(Nc3ccc(F)c(Cl)c3)nc2NCCCN(C)C)s1 [Example 12, 1-{5-[2-(3-chloro-4-fluorophenylamino)-4-[3-(dimethylamino)propylamino)pyrimidin-5-yl]thiophen-2-yl}ethanone]
Second: COc1ccc(-c2cnc(Nc3ccc(F)c(Cl)c3)nc2NCCCN(C)C)cc1C(F)(F)F [Example 7, N^2-(3-chloro-4-fluorophenyl)-N^4-(3-(dimethylamino)propyl)-5-(4-methoxy-3(trifluoromethyl)phenyl)pyrimidine-2,4-diamine]
The inhibition at 13 µM of the first is higher: 108% for the first, 98.7% for the second.

First: CN(C)CCn1cc(C(=O)O)c(=O)c2cc(-c3cnc(Nc4ccc(F)c(Cl)c4)nc3-n3ccc(C(F)(F)F)n3)ccc21 [Example 1070, 6-(2-(3-Chloro-4-fluorophenylamino)-4-(3-(trifluoromethyl)-1H-pyrazol-1-yl)pyrimidin-5-yl)-1-(2-(dimethylamino)ethyl)-4-oxo-1,4-dihydroquinoline-3-carboxylic acid]
Second: Cc1cc(C(F)(F)F)nn1-c1nc(Nc2ccc(F)c(Cl)c2)ncc1-c1cc(C(=O)O)c(=O)n(CCN2CCN(C(C)C)CC2)c1 [Example 1090, 5-(2-(3-chloro-4-fluorophenylamino)-4-(5-methyl-3-(trifluoromethyl)-1H-pyrazol-1-yl)pyrimidin-5-yl)-1-(2-(4-isopropylpiperazin-1-yl)ethyl)-2-oxo-1,2-dihydropyridine-3-carboxylic acid]
The inhibition at 13 µM of the first is lower: 93% for the first, 100% for the second.

Compared with Cc1cc(C(F)(F)F)nn1-c1nc(Nc2cccc(Cl)c2)ncc1-c1cncc(C(=O)O)c1 [Example 744, 5-{2-[(3-chlorophenyl)amino]-4-[5-methyl-3-(trifluoromethyl)-1H-pyrazol-1-yl]pyrimidin-5-yl}pyridine-3-carboxylic acid], COc1ncc(-c2cnc(Nc3cc(C)cc(Cl)c3)nc2-n2ccc(C(F)(F)F)n2)cc1C(=O)NS(C)(=O)=O [Example 800, 5-{2-[(3-chloro-5-methylphenyl)amino]-4-[3-(trifluoromethyl)-1H-pyrazol-1-yl]pyrimidin-5-yl}-2-methoxy-N-(methylsulfonyl)pyridine-3-carboxamide] is lower in inhibition at 13 µM: 100% for the first, 99% for the second.

For COc1cc(Nc2ncc(-c3cnc(OC)c(C(=O)NS(=O)(=O)CCCN4CCOCC4)c3)c(-n3nc(C(F)(F)F)cc3C)n2)cc(OC)c1 [Example 821, 5-{2-[(3,5-dimethoxyphenyl)amino]-4-[5-methyl-3-(trifluoromethyl)-1H-pyrazol-1-yl]pyrimidin-5-yl}-2-methoxy-N-{[3-(morpholin-4-yl)propyl]sulfonyl}pyridine-3-carboxamide], the inhibition at 13 µM was 100%.
